The term IC50 denotes the concentration that gives 50% inhibition.

Our source for the IC50 values is ChEMBL document CHEMBL1150599, “Spiroidesin, a novel lipopeptide from the cyanobacterium Anabaena spiroides that inhibits cell growth of the cyanobacterium Microcystis aeruginosa” (J Nat Prod, 2002).

The test system of one experiment is Microcystis aeruginosa. The experiment is described as follows: Growth inhibition of Microcystis aeruginosa NIES-88 after 5 days. It counts as functional, organism-based. The following applies: NIES-88, 120 h.
Experiment [1] can be described thus: Inhibition of alpha-chymotrypsin.

For `CCCCCC(=O)N[C@H](CCc1ccc(O)cc1)C(=O)N[C@@H](CCc1ccc(O)cc1)C(=O)N[C@H](Cc1ccccc1)C(=O)O` [SPIROIDESIN], the IC50 is 1.6 µM in the experiment with Microcystis aeruginosa and 10 µM in experiment [1].
